Legend:
[1] = Thermodynamic stability experiment of crystal form (slurrying in solvents); assay type: physicochemical
Description: Through polycrystalline screening test, the relatively thermodynamically stable crystal form of salt was found.
The mixture was slurried at 40 degrees for 2 days, and centrifuged, and the solid was oven-dried in vacuo at 40 degrees overnight, and then XRD and other corresponding characterizations were performed.

[2] = Solubility determination of crystal form C of tromethamine salt; assay type: physicochemical; conditions: 37 °C, thermodynamic from solid
Description: 1 to 2 mg of compound 28 was weighed into a 1.5 mL liquid phase vial, then 1 mL of pH buffer, artificial simulated gastric fluid (FaSSGF), artificial fasted-state simulated intestinal fluid (FaSSIF), artificial non-fasted-state simulated intestinal fluid (FeSSIF), and pure water were respectively added, and the mixture was placed on a constant temperature oscillator overnight at a temperature of 37 degrees. After 24 h, the sample solution was filtered with a 0.45 μm mixed water fiber filter membrane and then the filtrate was taken. The content was tested by HPLC. For the HPLC detection method, please refer to the solution stability analysis method in Section 1.2.

XRD after slurrying for 2 days ([1]; EA 200 ul, 40 degrees): Crystal form C
XRD after slurrying for 2 days ([1]; EtOH 200 ul, 40 degrees): Crystal form C
XRD after slurrying for 2 days ([1]; Heptane 200 ul, 40 degrees): Crystal form C
XRD after slurrying for 2 days ([1]; IPA 200 ul, 40 degrees): Crystal form C
XRD after slurrying for 2 days ([1]; IPAC 200 ul, 40 degrees): Crystal form C
XRD after slurrying for 2 days ([1]; IPE 200 ul, 40 degrees): Crystal form C
XRD after slurrying for 2 days ([1]; MTBE 200 ul, 40 degrees): Crystal form C
XRD after slurrying for 2 days ([1]; hexane 200 ul, 40 degrees): Crystal form C
Stability of crystal form (in words) ([1]; slurried in solvents at 40 degrees for 2 days): very stable
Phenomenon after slurrying for 2 days ([1]; water 200 ul, 10 mg, 40 degrees): Dissolved clarification
solubility at 24 h ([2]; aqueous buffer, USP Buffer pH 7.4, 37 degrees): 254 µg/mL
solubility at 24 h ([2]; FaSSIF, 37 degrees): 478 µg/mL
solubility at 24 h ([2]; FeSSIF, 37 degrees): 756 µg/mL
solubility at 24 h ([2]; water, H2O, 37 degrees): 66.4 µg/mL
SMILES: O=C(O)c1ccc2nc(CN3CCC(c4cccc5c4OC(c4ccc(Cl)cc4F)C=C5)CC3)n(CC3CCO3)c2c1 (centres unmarked)
